Data taken from patent publication US20200093801A1, “NEW METHODS FOR THE TREATMENT OF MULTIPLE SCLEROSIS” (Novartis AG, priority 2017, published 2020).

Assays:
[1] = test system: Cuprizone-Induced Demyelination in Mice; test: Cuprizone-induced demyelination in mice at 20 mg/kg and 60 mg/kg, MRI; format: in vivo, Mice (C57BL/6J)
From the text: Studies described below were approved by the Swiss Cantonal Veterinary Authority of Basel City, Switzerland, under the license number 2711. Mice (C57BL/6J) were commercially purchased from Charles River Laboratories, Germany or obtained from Novartis Pharma AG breeding colonies (8-9 weeks old, females). All the animals were allowed to adapt for 7 days prior the start of the experiment and housed in IVC racks (max. 4 mice/XJ Type cage). The animals were given access to food and water ad libitum. Animals were treated with cuprizone for 5 weeks. Cuprizone (Bis(cyclohexanone)oxaldihydrazone, Sigma-Aldrich) was mixed into rodent food pellets (0.2% w/w) by Provimi Kliba AG, Switzerland. Therapeutic treatment of animals after cuprizone was performed for 2 weeks on normal food with 20 and 60 mg/kg of BLZ945, qd, p.o. 10 ml/kg. BLZ945 was prepared in vehicle consisting of 0.5% methylcellulose in water and 0.1% Tween-80. Before killing 3 h after last BLZ945 dosing animals were perfused transcardially by phosphate-buffered saline (PBS), brains isolated and fixed in 4% paraformaldehyde (PFA) for 48 h at 4° C.
Measurements were performed with a Biospec 70/30 spectrometer (Bruker Medical Systems, Ettlingen, Germany) operating at 7 T. The operational software of the scanner was Paravision 5.1 (Bruker). Images were acquired from anesthetized, spontaneously breathing animals using a mouse brain circularly polarized coil (Bruker, Model 1P T20063V3; internal diameter 23 mm) for radiofrequency excitation and detection; neither cardiac nor respiratory triggering was applied. Following a short period of introduction in a box, animals were maintained in anesthesia with 1.5% isoflurane (Abbott, Cham, Switzerland) in oxygen, administered via a nose cone. During MRI signal acquisitions, animals were placed in prone position in a cradle made of Plexiglas, the body temperature was kept at 37±1° C. using a heating pad, and the respiration was monitored.
A T2-weighted, two-dimensional multislice RARE (Rapid Acquisition with Relaxation Enhancement) sequence (Hennig et al., 1986) was used for determining the anatomical orientation and for evaluating signal intensities. This was followed by a two-dimensional multislice gradient-recalled FLASH (Fast Low-Angle Shot) acquisition (Haase et al., 1986) for assessment of MTR. As both sequences had the same anatomical parameters, the choice of the regions-of-interest for evaluations was performed on the RARE images and then transferred to the FLASH images. The parameters of the acquisitions were the following: (a) RARE sequence: effective echo time 80 ms, repetition time 3280 ms, RARE factor 16, 12 averages, field of view 20×18 mm^2, matrix size 213×192, pixel size 0.094×0.094 mm^2, slice thickness 0.5 mm, 15 adjacent slices. Hermite pulses of duration/bandwidth 1 ms/5400 Hz and 0.64 ms/5344 Hz were used for radiofrequency excitation and refocusing, respectively. Fat suppression was achieved by a gauss512 pulse of 2.61 ms/1051 Hz duration/bandwidth followed by a 2-ms-long gradient spoiler. The total acquisition time was of 7 min 52.3 s; (b) FLASH sequence: echo time 2.8 ms, repetition time 252.8 ms, 4 averages, field of view 20×18 mm^2, matrix size 213×192, pixel size 0.094×0.094 mm^2, slice thickness 0.5 mm, 15 adjacent slices. A hermite pulse of 0.9 ms/6000 Hz duration/bandwidth and flipangle 30° was used for radiofrequency excitation. MTR contrast was introduced by a gauss pulse of 15 ms/182.7 Hz duration/bandwidth applied with a radiofrequency peak amplitude of 7.5 μT and an irradiation offset of 2500 Hz. The acquisition was then repeated with the same parameters but without the introduction of the MTR contrast. MTR was then computed using the formula MTR=(S0−SMTR)/S0, where S0 and SMTR represent respectively the signal intensities in the FLASH acquisitions without and with the introduction of the MTR contrast. The total acquisition time for both data sets was of 6 min 31.6 seconds.

[2] = Quantitative determination of BLZ945 in blood and brain (LC-MS-MS); format: in vivo; conditions: mice, p.o., FIG. 11
Method: Sample preparation and analysis was based on a modified protein precipitation procedure followed by liquid chromatographic separation coupled with mass spectrometry for detection. Cerebella were homogenized in a gentleMACS™ Dissociator (Milteniy Biotec, #130-093-235) by adding 20% CH3OH to a final concentration of 0.20 g/mL. Blood-EDTA samples were directly used for further preparation. Calibration, quality control, and recovery control samples were prepared by spiking blank blood and blank brain homogenate with known quantities of BLZ945 (between 0.02 and 62.5 μg/mL). For analyte determination, Labetalol hydrochloride (Sigma-Aldrich, # L1011) was used as generic internal standard (IS). […]
LC-MS-MS analysis: For quantitative analysis, a 1.5 μl aliquot of each sample, including calibration, quality control, and recovery control samples were injected with a cooled Waters™ Acquity Urbinary sample manager and HPLC system. […] Quantification was based on the compound/IS ratio of the extracted ion chromatograms of the selected mass transitions 399 m/z→242 m/z for BLZ945 and 329 m/z→162 m/z for Labetalol (IS). The unknown sample concentration was calculated using external calibration curves. The Lower Limit Of Quantification (LLOQ) of the method was set to 20 ng/mL for blood, and 100 ng/mL for brain samples, and the recovery from the matrix was 95±2%. […]

[3] = 60 mg/kg p.o. qd, therapeutic mode after 5 weeks cuprizone
[4] = 20 and 60 mg/kg p.o. qd, 2-week therapeutic treatment after 5 weeks 0.2% cuprizone, FIG. 9 legend

Kp at 3 h ([2]; C57BL/6J, mouse, brain (cerebellum homogenate) / whole blood (EDTA), po, read-out: brain/blood ratio): 0.3 to 0.6 | Blood and brain BLZ945 levels [2]: dose-dependent
Compound: CNC(=O)c1cc(Oc2ccc3nc(N[C@@H]4CCCC[C@H]4O)sc3c2)ccn1 [BLZ945, 4-(2-((1R,2R)-2-hydroxycyclohexylamino)benzothiazol-6-yloxy)-N-methylpicolinamide]
Remyelination by MRI, corpus callosum/external capsule [1, 3]: significantly enhanced remyelination | Remyelination by MRI, cortex [1, 3]: significantly enhanced remyelination | Remyelination by MRI, striatum [1, 3]: only a trend | MRI contrast in corpus callosum [1, 4]: not corpus callosum | MRI contrast in cortex [1, 4]: reduces MRI contrast | MRI contrast in striatum [1, 4]: reduces MRI contrast | Remyelination as detected by MRI ([1]; lower doses (20 and 60 mg/kg), short-term treatment for only 1 week, 5-week cuprizone model): beneficial effects on remyelination
